According to US10793554B2, “Solid forms of 4-(2-fluoro-4-(1-methyl-1H-benzo[d]imidazol-5-yl)benzoyl)piperazin-1-yl)(1-hydroxycyclopropyl)methanone” (FORMA Therapeutics, Inc., priority 2018, dated 2020):
≈ marks a conversion by molar mass, not a printed value. Entries after “also recorded” stand apart in the source; their conditions may differ. Blank lines part the entries; values can stand above or below the compound they belong to.

Assays:
Assay type in all cases: physicochemical
[1] = Dynamic Vapor Sorption (DVS) of Form B
From the text: DVS was obtained using a Surface Measurement System (SMS) DVS Intrinsic. The details of the method are providing in Table 4, below:
The sample was non-hygroscopic.

[2] = Kinetic solubility of Form B in formulation (0.5% MC, 0.5% Tween 80 in water), HPLC; settings: 0.5% MC and 0.5% Tween 80 in water
Description: High Pressure Liquid Chromatography (HPLC) data was obtained according to Table 5, below:
(§1) Kinetic solubility and phase stability of Form B was tested in a formulation (0.5% methyl cellulose (MC) and 0.5% Tween 80 in water). The sample was monitored by XRPD at 1, 2, 4 and 24 hours for phase stability. […] Kinetic solubility of Form B was measured in the same formulation at time points of 1, 2, 4 and 24 hour (Table 8). The supernatant was obtained by filtration and the concentration was measured by HPLC.

[3] = Phase stability of Form B in formulation (XRPD); settings: after 24 h; 0.5% MC and 0.5% Tween 80 in water
Description: (§2) High resolution XRPD experiments were performed with Panalytical X′Pert^3 Powder XRPD on a Si zero-background holder. The 2θposition was calibrated against Panalytical 640 Si powder standard.
as §1

[4] = Chemical stability study at elevated temperature and controlled relative humidity
Description: A study was conducted on a sample of Compound 1 (Form B) where samples were exposed (open) to a range of elevated temperatures (50-80° C.) and controlled relative humidity (RH) (0-80% RH).

[5] = Slurry stability evaluation of Mixture A (XRPD of collected solids); settings: 4 days
Description: as §2
The solids collected were analyzed by XRPD to confirm the form change.

[6] = Slurry competition of Form B and Form C at different water activity (XRPD); settings: for Results (solid form after slurry competition): 4 days
Description: as §2
Form C was dissolved in three solvent mixtures (see Table 7) to get saturated solutions. Similar mass of Form B and Form C were added into the saturated solutions. The suspensions obtained were stirred at room temperature for 4 days and the solids collected were analyzed with XRPD.

form change before and after DVS (XRPD) [1]: no form change
hygroscopicity (DVS) ([1]; 25° C.): non-hygroscopic
mass change (DVS) ([1]; from 0% RH to 95% RH at 25° C.): 0.46 wt %
solubility at 1 h ([2]; 0.5% methyl cellulose and 0.5% Tween 80 in water, aqueous with cosolvent or surfactant or cyclodextrin, thermodynamic from solid, 1 h, RT): 62 µg/mL (≈ 147 µM)
solubility at 2 h ([2]; 0.5% methyl cellulose and 0.5% Tween 80 in water, aqueous with cosolvent or surfactant or cyclodextrin, thermodynamic from solid, 2 h, RT): 62 µg/mL (≈ 147 µM)
solubility at 4 h ([2]; 0.5% methyl cellulose and 0.5% Tween 80 in water, aqueous with cosolvent or surfactant or cyclodextrin, thermodynamic from solid, 4 h, RT): 63 µg/mL (≈ 149 µM)
solubility at 24 h ([2]; 0.5% methyl cellulose and 0.5% Tween 80 in water, aqueous with cosolvent or surfactant or cyclodextrin, thermodynamic from solid, 24 h, RT): 60 µg/mL (≈ 142 µM)
Purity of solubility sample ([2]; 1 h): 97.8 % area at 240 nm
Purity of solubility sample ([2]; 2 h): 97.8 % area at 240 nm
Purity of solubility sample ([2]; 4 h): 97.7 % area at 240 nm
Purity of solubility sample ([2]; 24 h): 97.7 % area at 240 nm
course of solubility over time ([2]; during 24 hours at RT): remained stable
Structure (SMILES): Cn1cnc2cc(-c3ccc(C(=O)N4CCN(C(=O)C5(O)CC5)CC4)c(F)c3)ccc21 [Form B, (4-(2-fluoro-4-(1-methyl-1H-benzo[d]imidazol-5-yl)benzoyl)piperazin-1-yl)(1-hydroxycyclopropyl)methanone]
degradation in the solubility sample / vehicle ([2]; up to 24 h): No significant degradation; also recorded: no form change or significant degradation
phase transformation / form change in formulation (XRPD) [3]: no phase transformation; also recorded: no form change

estimated shelf life ([4]; 25° C./60% RH, Form B sample): greater than 5 years
chemical stability ([4]; Form B sample exposed open to 50-80° C., 0-80% RH): good chemical stability
Structure (SMILES): Cn1cnc2cc(-c3ccc(C(=O)N4CCN(C(=O)C5(O)CC5)CC4)c(F)c3)ccc21 [Compound 1, (4-(2-fluoro-4-(1-methyl-1H-benzo[d]imidazol-5-yl)benzoyl)piperazin-1-yl)(1-hydroxycyclopropyl)methanone]

Results (solid form after slurry) ([5]; ACN, 50° C.): Form B
Results (solid form after slurry) ([5]; ACN, RT): Form B
form conversion of solids from the slurries (summary) ([5]; EtOAc or ACN, RT or 50° C.): converted to Form B completely
Results (solid form after slurry) ([5]; EtOAc, 50° C.): Form B
Results (solid form after slurry) ([5]; EtOAc, RT): Form B
Structure (SMILES): Cn1cnc2cc(-c3ccc(C(=O)N4CCN(C(=O)C5(O)CC5)CC4)c(F)c3)ccc21 [Mixture A, (4-(2-fluoro-4-(1-methyl-1H-benzo[d]imidazol-5-yl)benzoyl)piperazin-1-yl)(1-hydroxycyclopropyl)methanone]

Results (solid form after slurry competition) ([6]; H2O/MeOH (85:915 v/v), Aw 0.25, RT): Form B
Results (solid form after slurry competition) ([6]; H2O/MeOH (225:775 v/v), Aw 0.5, RT): Form B
Results (solid form after slurry competition) ([6]; H2O/MeOH (494:506 v/v), Aw 0.75, 50° C.): Form B
form conversion in slurry competition (summary) ([6]; H2O/MeOH mixtures, Aw 0.25-0.75, 4 days): converted completely to Form B
Structure (SMILES): Cn1cnc2cc(-c3ccc(C(=O)N4CCN(C(=O)C5(O)CC5)CC4)c(F)c3)ccc21 [Form B and Form C, (4-(2-fluoro-4-(1-methyl-1H-benzo[d]imidazol-5-yl)benzoyl)piperazin-1-yl)(1-hydroxycyclopropyl)methanone]
